Measured values from patent US20250346574A1, “PYRIDINYL SUBSTITUTED OXOISOINDOLINE COMPOUNDS FOR THE TREATMENT OF CANCER” (Bristol-Myers Squibb Company, priority 2021, published 2025).

Molecular target: Helios (Homo sapiens, UniProt Q96SW2+Q9UKS7)
Assay: Helios Human T Regulatory Cells Degradation Assay
Type: cell-based
Set-up: fluorescently labelled antibodies against Helios in 1× Permeabilization buffer; endogenous in cells; host or cells: cryopreserved human T regulatory cells
Conditions: cryopreserved human T regulatory cells, incubated 20 hours, Helios-APC antibody staining, flow cytometry; read-out: hTreg Helios DC50
Description: Cryopreserved human T regulatory cells were thawed in RPMI+10% FBS+20 ng/mL IL-2. After being spun at 1200 rpm for 5 mins, the cells were resuspended in RPMI+10% FBS+20 ng/mL and rested at 37° C. with 5% CO2 for 3 hours. […] Cell cultures were incubated for 20 hours at 37° C. and 5% CO2. In order to facilitate analysis, cell cultures were spun down at 1200 rpm for 5 minutes and the supernatant was discarded using an EL406 plate washer. After washing three times with 70 μL PBS, cell pellets were resuspended in 50 μL of near IR viability staining solution (Life Technologies, Cat #L34975) and incubated for 30 minutes on ice protected from light. Cells were washed three times with 70 μL PBS+0.5% BSA using an EL406 plate washer. […] Subsequently, 30 μL of 1× Permeabilization buffer was added prior to centrifuging the cells and discarding the supernatant. Stained cells were resuspended in 30 μL of flow cytometry staining buffer (PBS+0.5% BSA) and analyzed using an Intellicyt Ique Plus flow cytometer.

Helios, sequence (Q9UKS7 whole entry): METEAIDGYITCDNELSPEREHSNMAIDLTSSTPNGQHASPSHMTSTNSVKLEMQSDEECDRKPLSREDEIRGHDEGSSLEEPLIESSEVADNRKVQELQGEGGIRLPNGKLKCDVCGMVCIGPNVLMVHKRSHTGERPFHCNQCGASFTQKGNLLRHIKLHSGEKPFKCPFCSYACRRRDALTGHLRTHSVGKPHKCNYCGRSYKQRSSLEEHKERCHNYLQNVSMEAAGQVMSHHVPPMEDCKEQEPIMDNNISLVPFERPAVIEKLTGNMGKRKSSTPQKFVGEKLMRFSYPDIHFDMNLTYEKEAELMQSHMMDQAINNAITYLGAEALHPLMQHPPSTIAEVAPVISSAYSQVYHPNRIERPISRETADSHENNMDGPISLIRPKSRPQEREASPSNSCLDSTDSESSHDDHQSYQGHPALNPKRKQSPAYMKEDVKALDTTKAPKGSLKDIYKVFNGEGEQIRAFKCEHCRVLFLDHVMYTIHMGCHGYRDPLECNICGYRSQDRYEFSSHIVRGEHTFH
Helios, sequence (Q96SW2 whole entry): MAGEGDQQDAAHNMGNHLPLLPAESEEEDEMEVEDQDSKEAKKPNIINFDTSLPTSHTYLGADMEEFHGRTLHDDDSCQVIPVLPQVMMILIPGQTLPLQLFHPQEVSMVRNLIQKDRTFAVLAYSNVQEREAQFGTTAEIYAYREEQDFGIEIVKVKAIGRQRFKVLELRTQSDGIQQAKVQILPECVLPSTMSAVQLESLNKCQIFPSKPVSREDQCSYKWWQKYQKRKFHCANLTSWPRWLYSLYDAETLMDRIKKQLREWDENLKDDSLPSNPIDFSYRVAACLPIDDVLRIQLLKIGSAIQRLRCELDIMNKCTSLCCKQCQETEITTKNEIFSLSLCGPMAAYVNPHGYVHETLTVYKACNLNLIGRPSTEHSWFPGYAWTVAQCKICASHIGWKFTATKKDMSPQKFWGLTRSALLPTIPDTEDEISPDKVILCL
Helios, sequence (Q16531 whole entry partner): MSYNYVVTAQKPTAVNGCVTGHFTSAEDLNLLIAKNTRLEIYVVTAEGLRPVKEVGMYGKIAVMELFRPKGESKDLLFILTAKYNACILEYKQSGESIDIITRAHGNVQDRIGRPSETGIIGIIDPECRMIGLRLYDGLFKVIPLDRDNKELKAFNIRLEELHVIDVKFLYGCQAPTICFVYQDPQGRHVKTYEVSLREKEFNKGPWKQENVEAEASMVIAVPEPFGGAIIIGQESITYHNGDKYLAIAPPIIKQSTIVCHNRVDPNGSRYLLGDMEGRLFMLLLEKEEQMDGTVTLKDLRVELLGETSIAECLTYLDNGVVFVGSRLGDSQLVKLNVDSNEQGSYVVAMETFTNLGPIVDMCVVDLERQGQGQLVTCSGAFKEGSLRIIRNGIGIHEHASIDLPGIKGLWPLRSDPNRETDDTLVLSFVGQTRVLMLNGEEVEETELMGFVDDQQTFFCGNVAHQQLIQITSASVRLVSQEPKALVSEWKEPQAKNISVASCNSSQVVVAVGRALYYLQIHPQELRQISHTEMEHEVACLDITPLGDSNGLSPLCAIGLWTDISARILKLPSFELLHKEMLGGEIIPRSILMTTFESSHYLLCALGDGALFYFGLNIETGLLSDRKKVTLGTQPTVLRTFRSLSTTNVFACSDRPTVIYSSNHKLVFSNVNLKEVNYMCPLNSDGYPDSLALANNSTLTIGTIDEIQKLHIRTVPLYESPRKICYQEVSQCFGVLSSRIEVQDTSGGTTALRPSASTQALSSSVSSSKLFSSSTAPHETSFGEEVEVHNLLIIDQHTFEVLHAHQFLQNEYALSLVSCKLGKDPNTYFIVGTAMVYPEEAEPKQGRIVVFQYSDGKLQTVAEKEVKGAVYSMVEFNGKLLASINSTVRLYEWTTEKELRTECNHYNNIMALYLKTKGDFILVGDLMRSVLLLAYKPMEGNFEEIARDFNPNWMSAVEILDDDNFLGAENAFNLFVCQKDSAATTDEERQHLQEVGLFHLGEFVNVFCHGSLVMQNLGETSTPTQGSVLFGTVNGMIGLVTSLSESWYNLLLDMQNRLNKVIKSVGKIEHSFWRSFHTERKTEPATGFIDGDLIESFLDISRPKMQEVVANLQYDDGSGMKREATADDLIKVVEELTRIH

Row | DC50 [µM] | SMILES
1 | 0.0791 | C[C@@H]1c2c(ccc(-c3cc(CN4CCC(C)(O)C4)ccn3)c2F)C(=O)N1[C@H]1CCC(=O)NC1=O (stereo partly drawn) [Example 140, (3S)-3-((3R)-4-fluoro-5-(4-((3-hydroxy-3-methylpyrrolidin-1-yl)methyl)pyridin-2-yl)-3-methyl-1-oxoisoindolin-2-yl)piperidine-2,6-dione]
2 | ≥ 10 | C[C@@H]1c2c(ccc(-c3cc(CN4CC[C@@H](Oc5ccccc5)C4)ccn3)c2F)C(=O)N1[C@H]1CCC(=O)NC1=O [Example 141, (S)-3-((R)-4-fluoro-3-methyl-1-oxo-5-(4-(((R)-3-phenoxypyrrolidin-1-yl)methyl)pyridin-2-yl)isoindolin-2-yl)piperidine-2,6-dione]
3 | 0.0007 | O=C1CC[C@H](N2Cc3cc(-c4cc(CN5CC6(CC(O)C6)C5)ccn4)ccc3C2=O)C(=O)N1 [Example 145, (S)-3-(5-(4-((6-hydroxy-2-azaspiro[3.3]heptan-2-yl)methyl)pyridin-2-yl)-1-oxoisoindolin-2-yl)piperidine-2,6-dione]
4 | 0.003 | O=C1CC[C@H](N2Cc3cc(-c4cc(CN5CC6CC(O)CC6C5)ccn4)ccc3C2=O)C(=O)N1 (stereo partly drawn) [Example 146, (3S)-3-(5-(4-((5-hydroxyhexahydrocyclopenta[c]pyrrol-2(1H)-yl)methyl)pyridin-2-yl)-1-oxoisoindolin-2-yl)piperidine-2,6-dione]
5 | 0.0037 | CC1=CC2CN(Cc3ccnc(-c4ccc5c(c4)CN([C@H]4CCC(=O)NC4=O)C5=O)c3)CC2C1 (stereo partly drawn) [Example 148, (3S)-3-(5-(4-((5-methyl-3,3a,4,6a-tetrahydrocyclopenta[c]pyrrol-2(1H)-yl)methyl)pyridin-2-yl)-1-oxoisoindolin-2-yl)piperidine-2,6-dione]
6 | 0.0067 | O=C1CC[C@H](N2Cc3cc(-c4nccc(CN5C[C@H]6CCC(O)C[C@H]6C5)c4F)ccc3C2=O)C(=O)N1 (stereo partly drawn) [Example 149, (3S)-3-(5-(3-fluoro-4-(((3aR,7aS)-5-hydroxyoctahydro-2H-isoindol-2-yl)methyl)pyridin-2-yl)-1-oxoisoindolin-2-yl)piperidine-2,6-dione]
7 | ≥ 10 | O=C1CC[C@H](N2Cc3cc(-c4nccc(CN5CCC6(CCNC6=O)CC5)c4F)ccc3C2=O)C(=O)N1 [Example 150, (S)-3-(5-(3-fluoro-4-((1-oxo-2,8-diazaspiro[4.5]decan-8-yl)methyl)pyridin-2-yl)-1-oxoisoindolin-2-yl)piperidine-2,6-dione]
8 | 0.167 | O=C1CC[C@H](N2Cc3cc(-c4nccc(CN5C[C@H]6COC[C@H]6C5)c4F)ccc3C2=O)C(=O)N1 [Example 151, (S)-3-(5-(3-fluoro-4-(((3aR,6aS)-tetrahydro-1H-furo[3,4-c]pyrrol-5(3H)-yl)methyl)pyridin-2-yl)-1-oxoisoindolin-2-yl)piperidine-2,6-dione]
9 | 0.0188 | O=C1CC[C@H](N2Cc3cc(-c4cc(CN5C[C@H]6COC[C@H]6C5)ccn4)ccc3C2=O)C(=O)N1 [Example 152, (S)-3-(1-oxo-5-(4-(((3aR,6aS)-tetrahydro-1H-furo[3,4-c]pyrrol-5(3H)-yl)methyl)pyridin-2-yl)isoindolin-2-yl)piperidine-2,6-dione]
10 | 0.0153 | O=C1CC[C@H](N2Cc3cc(-c4nccc(CN5CC6(CC(O)C6)C5)c4F)ccc3C2=O)C(=O)N1 [Example 153, (S)-3-(5-(3-fluoro-4-((6-hydroxy-2-azaspiro[3.3]heptan-2-yl)methyl)pyridin-2-yl)-1-oxoisoindolin-2-yl)piperidine-2,6-dione]
11 | 0.284 | CC(C)(C)OC(=O)N1C[C@@H]2CN(Cc3ccnc(-c4ccc5c(c4)CN([C@H]4CCC(=O)NC4=O)C5=O)c3F)C[C@H]2C1 [Example 154, tert-butyl (3aS,6aS)-5-((2-(2-((S)-2,6-dioxopiperidin-3-yl)-1-oxoisoindolin-5-yl)-3-fluoropyridin-4-yl)methyl)hexahydropyrrolo[3,4-c]pyrrole-2(1H)-carboxylate]
12 | 0.0109 | O=C1CC[C@H](N2Cc3cc(-c4nccc(CN5CC6CCCC6C5)c4F)ccc3C2=O)C(=O)N1 (stereo partly drawn) [Example 155, (3S)-3-(5-(3-fluoro-4-((hexahydrocyclopenta[c]pyrrol-2(1H)-yl)methyl)pyridin-2-yl)-1-oxoisoindolin-2-yl)piperidine-2,6-dione]
13 | ≥ 10 | CC(C)(C)OC(=O)N1C[C@H]2CN(Cc3ccnc(-c4ccc5c(c4)CN([C@H]4CCC(=O)NC4=O)C5=O)c3F)C[C@H]2C1 [Example 156, tert-butyl (3aR,6aS)-5-((2-(2-((S)-2,6-dioxopiperidin-3-yl)-1-oxoisoindolin-5-yl)-3-fluoropyridin-4-yl)methyl)hexahydropyrrolo[3,4-c]pyrrole-2(1H)-carboxylate]
14 | 0.0025 | O=C1CCC(N2Cc3cc(-c4cc(CN5CC6(CCCCC6)C5)ccn4)ccc3C2=O)C(=O)N1 (stereo not shown) [Example 157, 3-(5-(4-((2-azaspiro[3.5]nonan-2-yl)methyl)pyridin-2-yl)-1-oxoisoindolin-2-yl) piperidine-2,6-dione]
15 | 0.0032 | O=C1CC[C@H](N2Cc3cc(-c4cc(CN5CC6(CCOCC6)C5)ccn4)ccc3C2=O)C(=O)N1 [Example 158, (S)-3-(5-(4-((7-oxa-2-azaspiro[3.5]nonan-2-yl)methyl)pyridin-2-yl)-1-oxoisoindolin-2-yl)piperidine-2,6-dione]
16 | 0.0146 | O=C1CCC(N2Cc3cc(-c4cc(CN5CC(CNC(=O)c6ccccc6)C5)ccn4)ccc3C2=O)C(=O)N1 (stereo not shown) [Example 159, N-((1-((2-(2-(2,6-dioxopiperidin-3-yl)-1-oxoisoindolin-5-yl)pyridin-4-yl)methyl)azetidin-3-yl)methyl)benzamide]
17 | 0.0619 | CN(C(=O)c1ccccc1)C1CN(Cc2ccnc(-c3ccc4c(c3)CN([C@H]3CCC(=O)NC3=O)C4=O)c2)C1 [Example 160, (S)—N-(1-((2-(2-(2,6-dioxopiperidin-3-yl)-1-oxoisoindolin-5-yl)pyridin-4-yl)methyl)azetidin-3-yl)-N-methylbenzamide]
18 | 0.223 | CN(C1CN(Cc2ccnc(-c3ccc4c(c3)CN([C@H]3CCC(=O)NC3=O)C4=O)c2)C1)S(C)(=O)=O [Example 161, (S)—N-(1-((2-(2-(2,6-dioxopiperidin-3-yl)-1-oxoisoindolin-5-yl)pyridin-4-yl)methyl)azetidin-3-yl)-N-methylmethanesulfonamide]
19 | 0.0287 | CN(C1CN(Cc2ccnc(-c3ccc4c(c3)CN([C@H]3CCC(=O)NC3=O)C4=O)c2)C1)S(=O)(=O)c1ccccc1 [Example 162, (S)—N-(1-((2-(2-(2,6-dioxopiperidin-3-yl)-1-oxoisoindolin-5-yl)pyridin-4-yl)methyl)azetidin-3-yl)-N-methylbenzenesulfonamide]
20 | 0.0159 | CN(CC1CN(Cc2ccnc(-c3ccc4c(c3)CN([C@H]3CCC(=O)NC3=O)C4=O)c2)C1)C(=O)c1ccccc1 [Example 164, (S)—N-((1-((2-(2-(2,6-dioxopiperidin-3-yl)-1-oxoisoindolin-5-yl)pyridin-4-yl)methyl)azetidin-3-yl)methyl)-N-methylbenzamide]
21 | 0.178 | O=C1CCC(N2Cc3cc(-c4cc(Cn5cccn5)ccn4)ccc3C2=O)C(=O)N1 (stereo not shown) [Example 165, 3-(5-(4-((1H-pyrazol-1-yl)methyl)pyridin-2-yl)-1-oxoisoindolin-2-yl)piperidine-2,6-dione]
22 | ≥ 10 | Cc1cnn(Cc2ccnc(-c3ccc4c(c3)CN([C@H]3CCC(=O)NC3=O)C4=O)c2)c1 [Example 166, (S)-3-(5-(4-((4-methyl-1H-pyrazol-1-yl)methyl)pyridin-2-yl)-1-oxoisoindolin-2-yl)piperidine-2,6-dione]
23 | 0.001 | Cc1cnc(-c2ccc3c(c2)CN(C2CCC(=O)NC2=O)C3=O)cc1CN1CCC(C(C)(C)O)CC1 (stereo not shown) [Example 167, 3-(5-(4-((4-(2-hydroxypropan-2-yl)piperidin-1-yl)methyl)-5-methylpyridin-2-yl)-1-oxoisoindolin-2-yl)piperidine-2,6-dione]
24 | 0.0037 | Cc1cnc(-c2ccc3c(c2)CN(C2CCC(=O)NC2=O)C3=O)cc1CN1CC2(CCC2)C1 (stereo not shown) [Example 168, 3-(5-(4-((2-azaspiro[3.3]heptan-2-yl)methyl)-5-methylpyridin-2-yl)-1-oxoisoindolin-2-yl)piperidine-2,6-dione]
25 | 0.004 | Cc1cnc(-c2ccc3c(c2)CN(C2CCC(=O)NC2=O)C3=O)cc1CN1CCC(C2CC2)C1 (stereo not shown) [Example 169, 3-(5-(4-((3-cyclopropylpyrrolidin-1-yl)methyl)-5-methylpyridin-2-yl)-1-oxoisoindolin-2-yl)piperidine-2,6-dione]
26 | 0.0052 | COc1c(CN2CCC(C(C)(C)O)CC2)ccnc1-c1ccc2c(c1)CN(C1CCC(=O)NC1=O)C2=O (stereo not shown) [Example 172, 3-(5-(4-((4-(2-hydroxypropan-2-yl)piperidin-1-yl)methyl)-3-methoxypyridin-2-yl)-1-oxoisoindolin-2-yl)piperidine-2,6-dione]
27 | 0.0004 | COc1c(CN2CCC(C3CC3)C2)ccnc1-c1ccc2c(c1)CN(C1CCC(=O)NC1=O)C2=O (stereo not shown) [Example 173, 3-(5-(4-((3-cyclopropylpyrrolidin-1-yl)methyl)-3-methoxypyridin-2-yl)-1-oxoisoindolin-2-yl)piperidine-2,6-dione]

Row | SMILES | DC50 [µM]
28 | C[C@@H]1c2c(ccc(-c3cc(CN4CC[C@H](F)C4)ccn3)c2F)C(=O)N1[C@H]1CCC(=O)NC1=O [Example 142] | 0.706
